In ChEMBL document CHEMBL1141287, “Cardenolides from Saussurea stella with cytotoxicity toward cancer cells” (J Nat Prod, 2007) one finds IC50 data, which are given here for nine compounds.

Test [1] can be described thus: Cytotoxicity against human BCG823 cells after 48 hrs by sulforhodamine B assay. To be noted: BCG823, 48 h. The test is classed as functional, cell-based. A general note: Sulforhodamine B stains cellular protein and so reports cell mass.
For a further test, the system named is Bel-7402. Nature of the test: Cytotoxicity against human Bel7402 cells after 48 hrs by sulforhodamine B assay. The class given is functional, cell-based. To be noted: Bel-7402, 48 h.

As for `C[C@]12CC[C@H]3[C@@H](CC[C@]4(O)C[C@@H](O[C@@H]5OC[C@@H](O)[C@H](O)[C@H]5O)CC[C@]34C=O)[C@@]1(O)CC[C@@H]2C1=CC(=O)OC1`, the IC50 in test [1] is 16 nM; with Bel-7402 it was 130 nM.
`C[C@H]1O[C@@H](O[C@H]2CC[C@]3(C)[C@H]4CC[C@]5(C)[C@@H](C6=CC(=O)OC6)CC[C@]5(O)[C@@H]4CC[C@]3(O)C2)[C@H](O)[C@@H](O)[C@H]1O`: the concentration for half-maximal inhibition (IC50) in test [1] is 120 nM; in the test with Bel-7402, 400 nM.
In the case of `C[C@@H]1O[C@@H](O[C@H]2CC[C@]3(C=O)[C@H]4CC[C@]5(C)[C@@H](C6=CC(=O)OC6)CC[C@]5(O)[C@@H]4CC[C@]3(O)C2)[C@H](O)[C@H](O)[C@H]1O` [CONVALLATOXIN], the values for the concentration for half-maximal inhibition (IC50) (in test [1]; in the test on Bel-7402) were 16 nM and 50 nM, respectively.
For the compound `C[C@]12CC[C@H](O[C@@H]3OC[C@@H](O)[C@H](O)[C@H]3O)C[C@@]1(O)CC[C@@H]1[C@@H]2CC[C@]2(C)[C@@H](C3=CC(=O)OC3)CC[C@]12O`, the 50% inhibitory concentration (IC50) came out at 230 nM in test [1] and 480 nM in the test with Bel-7402.
With `C[C@@H]1O[C@@H](O[C@@H]2C[C@H]3CC[C@@H]4[C@H](CC[C@]5(C)[C@@H](C6=CC(=O)OC6)CC[C@]45O)[C@@]3(C)[C@H](O)C2)[C@H](O)[C@H](O)[C@H]1O`, the IC50 in test [1] was found to be 56 nM; in the test on Bel-7402, 240 nM.
Turning to `C[C@@H]1O[C@@H](O[C@H]2CC[C@@]3(CO)[C@H](CC[C@@H]4[C@@H]3CC[C@]3(C)[C@@H](C5=CC(=O)OC5)CC[C@]43O)C2)[C@H](O)[C@H](O)[C@H]1O`, the values for the half-inhibitory concentration (IC50) (in test [1]; in the test with Bel-7402) were 77 nM and 28 nM, respectively.
In the case of `C[C@H]1O[C@@H](O[C@H]2CC[C@]3(C)[C@H]4CC[C@]5(C)[C@@H](C6=CC(=O)OC6)CC[C@]5(O)[C@@H]4CC[C@]3(O)C2)[C@H](O)[C@@H](O)[C@@H]1O`, the IC50 in test [1] came out at 70 nM; in the test on Bel-7402, 310 nM.
As to `C[C@H]1O[C@@H](O[C@H]2CC[C@]3(C=O)[C@H]4CC[C@]5(C)[C@@H](C6=CC(=O)OC6)CC[C@]5(O)[C@@H]4CC[C@]3(O)C2)[C@H](O)[C@@H](O)[C@@H]1O`, the results for the 50% inhibitory concentration (IC50) (in test [1]; in the test with Bel-7402) were 100 nM and 20 nM, respectively.
On to `C[C@@H]1O[C@@H](O[C@H]2CC[C@@]3(C=O)[C@H](CC[C@@H]4[C@@H]3CC[C@]3(C)[C@@H](C5=CC(=O)OC5)CC[C@]43O)C2)[C@H](O)[C@H](O)[C@H]1O[C@@H]1O[C@H](CO)[C@@H](O)[C@H](O)[C@H]1O`, for which the values for the IC50 (in test [1]; in the test on Bel-7402) were 290 nM and 870 nM, respectively.

What is called IC50 is the midpoint of a concentration-inhibition curve.
